Data taken from patent US4536502A (priority 1982, dated 1985).

Experiments:
Peronospora tabacina = assay: Greenhouse test on tobacco mildew; format: in vivo, Peronospora tabacina (on Nicotiana tabacum, Samson variety); conditions: for inhibition at 15 µg/mL: dose of 15 mg/liter; for inhibition at 500 µg/mL: dose of 500 mg/liter
Excerpt: Greenhouse test on tobacco mildew
The procedure of the previous example is followed, except that the plants are tobacco plants (Nicotiana tabacum) of the Samson variety, and that these plants are contaminated with spores of Peronospora tabacina, which is responsible for tobacco mildew.
Under these conditions, it was observed that, for the compounds or mixtures of compounds described in the above examples, the minimum inhibitory concentrations causing from 95 to 100% inhibition of the fungus in question (MIC 95-100) are respectively as follows:
In this experiment, the observed percentage inhibition of the development of the fungus in question was between 20% and 90%: […]

Phytophthora infestans = assay: whole plant or invertebrate; format: in vivo; conditions: in Solanum lycopersicum, read-out: percentage inhibition of the development of the fungus
[1] = test system: Tetranychus urticae koch, parthenogenetic females; assay: Acaricidal activity by contact-ingestion; format: in vivo; conditions: bean leaves treated by dipping, three days after contamination, average of two experiments
Procedure: Acaricidal activity by contact-ingestion
(foliage treated by dipping: Tetranychus urticae koch, parthenogenetic females).
An aqueous emulsion of the active ingredient to be tested is prepared by grinding the latter, in a Potter mill, in water containing 0.02% of Tween 80. The aqueous emulsion is then brought to the desired concentration by dilution with water containing 0.01% of Scurol O.
Bean plants (Phaseolus vulgaris--Contender variety) at the "cotyledonary leaf" stage are used. Each plant is treated by dipping the leaves for 10 seconds in the aqueous emulsion containing the active ingredient to be tested, at the desired concentration, two plants being used for each concentration. The experiment was carried out for active ingredient concentrations ranging from 2,000 mg/liter to 10 mg/liter. The bean plants are kept alive by immersing the roots and the base of the stem in distilled water.
After the surface of the foliage has dried, contamination is carried out by depositing, on each bean leaf, a highly contaminated leaf fragment produced by mite breeding. This leaf fragment is removed after 24 hours.
Three days after contamination, the number of dead mites and the number of living mites are counted under a binocular magnifying glass.
The percentage mortality is thus determined for each concentration (average of two experiments). […]

[2] = read-out: percentage inhibition of the development of the fungus

N#Cc1nc2ccccc2[nH]1 [2-Cyanobenzimidazole, 2-cyanobenzimidazole, reference compound]
inhibition at 1000 µg/mL (Peronospora tabacina; dose of 1,000 mg/liter, read-out: % inhibition (antifungal activity)): 0%

Cc1cc2nc(C#N)n(S(=O)(=O)N(C)C)c2cc1C [Compound 8]
inhibition at 500 µg/mL (Phytophthora infestans): 20 to 90%

CN(C)S(=O)(=O)n1c(C#N)nc2cc(C(C)(C)C)ccc21 [Compound 11]
inhibition at 500 µg/mL (Phytophthora infestans): 20 to 90%

CS(=O)(=O)n1c(C#N)nc2ccccc21 [Compound 16]
inhibition at 15 µg/mL (Peronospora tabacina; [2]): 20 to 90%

CS(=O)(=O)n1c(C#N)nc2c(Cl)cc(Cl)cc21 [Compound 17]
inhibition at 15 µg/mL (Phytophthora infestans): 20 to 90%

CC(C)S(=O)(=O)n1c(C#N)nc2c(Cl)cccc21 [Compound 21]
inhibition at 8 µg/mL (Peronospora tabacina; dose of 8 mg/liter, read-out: percentage inhibition of the development of the fungus): 20 to 90%

CC(C)S(=O)(=O)n1c(C#N)nc2ccccc21 [Compound 22]
inhibition at 15 µg/mL (Peronospora tabacina; [2]): 20 to 90%

COc1cc2c(nc(C#N)n2S(=O)(=O)N(C)C)c([N+](=O)[O-])c1OC [Compound 28]
inhibition at 500 µg/mL (Peronospora tabacina; [2]): 20 to 90%
inhibition at 500 µg/mL (Phytophthora infestans): 20 to 90%

CN(C)S(=O)(=O)n1c(C#N)nc2c(Br)cc(Br)cc21 [Compound 39]
inhibition at 8 µg/mL (Phytophthora infestans): 20 to 90%

CN(C)S(=O)(=O)n1c(C#N)nc2c(N)cccc21 [Compound 42]
inhibition at 500 µg/mL (Peronospora tabacina; [2]): 20 to 90%

Cc1cc(Br)cc2c1nc(C#N)n2S(=O)(=O)N(C)C [Compound 43]
inhibition at 500 µg/mL (Phytophthora infestans): 20 to 90%

CN(C)S(=O)(=O)n1c(C#N)nc2c(Cl)c(Cl)ccc21 [Compound 45]
inhibition at 4 µg/mL (Phytophthora infestans): 20 to 90%

Cc1c(Cl)ccc2c1nc(C#N)n2S(=O)(=O)N(C)C [Compound 50]
inhibition at 500 µg/mL (Phytophthora infestans): 20 to 90%

N#Cc1nc2c(Cl)cc(Cl)cc2n1S(=O)(=O)N1CCCC1 [Compound 57]
inhibition at 15 µg/mL (Peronospora tabacina; [2]): 20 to 90%

CN(C)S(=O)(=O)n1c(C#N)nc2c(C(F)(F)F)cc(Cl)cc21 [Compound 61]
LC90, concentration which causes 90% mortality of the mites [1]: 2,000 mg/liter

Cc1c([N+](=O)[O-])ccc2c1nc(C#N)n2S(=O)(=O)N(C)C [Compound 64]
inhibition at 15 µg/mL (Peronospora tabacina; [2]): 20 to 90%

CN(C)S(=O)(=O)n1c(C#N)nc2c(C(F)(F)F)cc(C(F)(F)F)cc21 [Compound 70]
LC90, concentration which causes 90% mortality of the mites [1]: 10 mg/L
